pKd: −log10 of the molar value.
Each compound was assayed against JAK2 (JH1 domain-catalytic, Y1007F, Y1008F) kinase (Homo sapiens (Human), UniProt O60674, Y1007F/Y1008F) (assay: JAK2 JH1 Domain Binding Assay). Conditions: qPCR readout.
Outline: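 Competitive binding format: test compound, DNA-tagged JAK2 JH1 (Y1007F/Y1008F; HEK293-expressed NFkB fusion) and ligand-coated magnetic beads incubated 1 h at room temperature. Kinase retained on beads released with 0.5 μmol/L non-biotinylated ligand, then measured by qPCR.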

Sequence of JAK2 (JH1 domain-catalytic, Y1007F, Y1008F) kinase (O60674 849-1124 Y1007F/Y1008F): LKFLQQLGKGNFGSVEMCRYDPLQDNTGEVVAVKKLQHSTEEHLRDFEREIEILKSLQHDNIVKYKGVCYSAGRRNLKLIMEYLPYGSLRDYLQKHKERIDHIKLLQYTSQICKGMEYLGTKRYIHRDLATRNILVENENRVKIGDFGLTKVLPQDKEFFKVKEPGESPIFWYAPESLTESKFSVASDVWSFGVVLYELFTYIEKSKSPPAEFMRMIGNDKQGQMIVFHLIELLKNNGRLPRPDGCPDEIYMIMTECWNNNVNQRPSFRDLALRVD

Structure (SMILES)	pKd
COCCOc1n[nH]c2ncc(N3CC[C@H]4[C@H](C3)OCCN4C(=O)Nc3cc(C(F)(F)F)cn(C)c3=O)cc12 [Example I-162-a, (4aS,8aS)-6-(3-(2-methoxyethoxy)-1H-pyrazolo[3,4-b]pyridin-5-yl)-N-(1-methyl-2-oxo-5-(trifluoromethyl)-1,2-dihydropyridin-3-yl)octahydro-1H-pyrido[3,4-b][1,4]oxazine-1-carboxamide]	> 8.00
CN(C(=O)Nc1cc(C(F)(F)F)cn(C)c1=O)[C@@H]1CC=C(c2cnc3[nH]cc(N4CCOCC4)c3n2)CC1.CN(C(=O)Nc1cc(C(F)(F)F)cn(C)c1=O)[C@H]1CC=C(c2cnc3[nH]cc(N4CCOCC4)c3n2)CC1 (mixture of isomers) [Example I-165-a, (S)-1-methyl-3-(1-methyl-2-oxo-5-(trifluoromethyl)-1,2-dihydropyridin-3-yl)-1-(4-(7-morpholino-5H-pyrrolo[2,3-b]pyrazin-2-yl)cyclohex-3-en-1-yl)urea and (R)-1-methyl-3-(1-methyl-2-oxo-5-(trifluoromethyl)-1,2-dihydropyridin-3-yl)-1-(4-(7-morpholino-5H-pyrrolo[2,3-b]pyrazin-2-yl)cyclohex-3-en-1-yl)urea]	> 8.00
CNc1n[nH]c2ncc(N3CC[C@H](N(C)C(=O)Nc4cc(C(F)(F)F)cn(C)c4=O)C(F)(F)C3)cc12 [Example I-125-b, (S)-1-(3,3-difluoro-1-(3-(methylamino)-1H-pyrazolo[3,4-b]pyridin-5-yl)piperidin-4-yl)-1-methyl-3-(1-methyl-2-oxo-5-(trifluoromethyl)-1,2-dihydropyridin-3-yl)urea]	> 8.00
CN(C(=O)Nc1cc(C(F)(F)F)cn(C)c1=O)C12CC(c3ccc(NC(=O)C4CC4)nc3)(C1)C2 [Example I-179, N-(5-(3-(1-methyl-3-(1-methyl-2-oxo-5-(trifluoromethyl)-1,2-dihydropyridin-3-yl)ureido)bicyclo[1.1.1]pentan-1-yl)pyridin-2-yl)cyclopropanecarboxamnide]	7.30 to 8.00
CC(=O)Nc1cnc(N2CC[C@@H](N(C)C(=O)Nc3cc(C(F)(F)F)cn(C)c3=O)C(F)(F)C2)cn1 (single isomer, unassigned) [Example I-35-a]	> 8.00
COc1n[nH]c2ncc(N3CCC(N(C)C(=O)Nc4cc(C5CC5)cn([C@@H]5CCCOC5)c4=O)CC3)cc12 [Example I-136-b, (R)-3-(5-cyclopropyl-2-oxo-1-(tetrahydro-2H-pyran-3-yl)-1,2-dihydropyridin-3-yl)-1-(1-(3-methoxy-1H-pyrazolo[3,4-b]pyridin-5-yl)piperidin-4-yl)-1-methylurea]	> 8.00
CC(=O)Nc1c[nH]c2ncc(N3CC[C@H](N(C)C(=O)Nc4cc(C(F)(F)F)cn(C)c4=O)C(F)(F)C3)cc12 (mixture of isomers) [Example I-172-b, (R)—N-(5-(3,3-difluoro-4-(1-methyl-3-(1-methyl-2-oxo-5-(trifluoromethyl)-1,2-dihydropyridin-3-yl)ureido)piperidin-1-yl)-1H-pyrrolo[2,3-b]pyridin-3-yl)acetamide and (S)—N-(5-(3,3-difluoro-4-(1-methyl-3-(1-methyl-2-oxo-5-(trifluoromethyl)-1,2-dihydropyridin-3-yl)ureido)piperidin-1-yl)-1H-pyrrolo[2,3-b]pyridin-3-yl)acetamide]	> 8.00
CN(C(=O)Nc1cc(C(F)(F)F)cn(C)c1=O)[C@H]1C[C@H]2C[C@@H]1CN2c1cnc(NC(=O)C2CC2)cn1 (single isomer, unassigned) [Example I-44-b]	7.30 to 8.00
COCCOc1n[nH]c2ncc(C34CC(N(C)C(=O)Nc5cc(C(F)(F)F)cn(C)c5=O)(C3)C4)cc12 [Example I-157, 1-(3-(3-(2-methoxyethoxy)-1H-pyrazolo[3,4-b]pyridin-5-yl)bicyclo[1.1.1]pentan-1-yl)-1-methyl-3-(1-methyl-2-oxo-5-(trifluoromethyl)-1,2-dihydropyridin-3-yl)urea]	> 8.00
CN(C(=O)Nc1cc(C(F)(F)F)cn(C)c1=O)[C@H]1CCN(c2cnc3[nH]ncc3c2)CC1(F)F [Example I-29-b, (S)-1-(3,3-difluoro-1-(1H-pyrazolo[3,4-b]pyridin-5-yl)piperidin-4-yl)-1-methyl-3-(1-methyl-2-oxo-5-(trifluoromethyl)-1,2-dihydropyridin-3-yl)urea]	> 8.00
CCN1CCN(Cc2ccc(NC(=O)N(C)C3CCN(c4cnc5[nH]nc(OC)c5c4)CC3)cc2C(F)(F)F)CC1 [Example I-182, 3-(4-((4-ethylpiperazin-1-yl)methyl)-3-(trifluoromethyl)phenyl)-1-(1-(3-methoxy-1H-pyrazolo[3,4-b]pyridin-5-yl)piperidin-4-yl)-1-methylurea]	> 8.00
CN1CCN(c2n[nH]c3ncc(N4CC[C@H](N(C)C(=O)Nc5cc(C(F)(F)F)cn(C)c5=O)C(F)(F)C4)cc23)CC1 (single isomer, unassigned) [Example I-154-b, (R)- or (S)-1-(3,3-difluoro-1-(3-(4-methylpiperazin-1-yl)-1H-pyrazolo[3,4-b]pyridin-5-yl)piperidin-4-yl)-1-methyl-3-(1-methyl-2-oxo-5-(trifluoromethyl)-1,2-dihydropyridin-3-yl)urea]	> 8.00
Cn1cc(C(F)(F)F)cc(NC(=O)N2CC=CC23CCN(c2cnc4[nH]ccc4n2)CC3)c1=O [Example I-78, N-(1-methyl-2-oxo-5-(trifluoromethyl)-1,2-dihydropyridin-3-yl)-8-(5H-pyrrolo[2,3-b]pyrazin-2-yl)-1,8-diazaspiro[4.5]dec-3-ene-1-carboxamide]	7.30 to 8.00

Next, values leading:

pKd	Structure (SMILES)
> 8.00	Cc1c[nH]c2ncc(N3CCC(N(C)C(=O)Nc4cc(C(F)(F)F)cn(C)c4=O)CC3)nc12 [Example I-30, 1-methyl-3-(1-methyl-2-oxo-5-(trifluoromethyl)-1,2-dihydropyridin-3-yl)-1-(1-(7-methyl-5H-pyrrolo[2,3-b]pyrazin-2-yl)piperidin-4-yl)urea]
> 8.00	COCc1cc2nc(N3CC[C@@H](N(C)C(=O)Nc4cc(C(F)(F)F)cn(C)c4=O)C(F)(F)C3)cnc2[nH]1 [Example I-110-a, (R)-1-(3,3-difluoro-1-(6-(methoxymethyl)-5H-pyrrolo[2,3-b]pyrazin-2-yl)piperidin-4-yl)-1-methyl-3-(1-methyl-2-oxo-5-(trifluoromethyl)-1,2-dihydropyridin-3-yl)urea]
7.30 to 8.00	CC(=O)Nc1cnc(N2CC[C@@H](N(C)C(=O)Nc3cc(C(F)(F)F)cn(C)c3=O)C[C@H]2C)cn1 [Example I-134-b, N-(5-((2R,4R)-2-methyl-4-(1-methyl-3-(1-methyl-2-oxo-5-(trifluoromethyl)-1,2-dihydropyridin-3-yl)ureido)piperidin-1-yl)pyrazin-2-yl)acetamide]
> 8.00	COCc1cc2nc(N3CC[C@@H](N(C)C(=O)Nc4cc(C(F)(F)F)cn(C)c4=O)[C@@H](F)C3)cnc2[nH]1 [Example I-111-a, 1-((3S,4R)-3-fluoro-1-(6-(methoxymethyl)-5H-pyrrolo[2,3-b]pyrazin-2-yl)piperidin-4-yl)-1-methyl-3-(1-methyl-2-oxo-5-(trifluoromethyl)-1,2-dihydropyridin-3-yl)urea]
7.30 to 8.00	CN(C(=O)Nc1cc(C(F)(F)F)cn(C)c1=O)[C@@H]1CCN(c2cnc3[nH]ncc3c2)CC1(C)C (single isomer, unassigned) [Example I-45-b]
6.00 to 7.30	CN(C(=O)Nc1cc(C(F)(F)F)cn(C)c1=O)C1CCCN(c2cnc3[nH]ccc3n2)CC1 (single isomer, unassigned) [Example I-41-b, (S)- or (R)-1-(1-(5H-pyrrolo[2,3-b]pyrazin-2-yl)azepan-4-yl)-1-methyl-3-(1-methyl-2-oxo-5-(trifluoromethyl)-1,2-dihydropyridin-3-yl)urea]
> 8.00	Cc1cc2nc(N3CCC(N(C)C(=O)Nc4cc(C(F)(F)F)cn(C)c4=O)CC3)cnc2[nH]1 [Example I-31, 1-methyl-3-(1-methyl-2-oxo-5-(trifluoromethyl)-1,2-dihydropyridin-3-yl)-1-(1-(6-methyl-5H-pyrrolo[2,3-b]pyrazin-2-yl)piperidin-4-yl)urea]
> 8.00	CN(C(=O)Nc1cc(C(F)(F)F)cn(C)c1=O)C1CCN(c2cnc3[nH]c(C4CC4)cc3n2)CC1 [Example I-25, 1-(1-(6-cyclopropyl-5H-pyrrolo[2,3-b]pyrazin-2-yl)piperidin-4-yl)-1-methyl-3-(1-methyl-2-oxo-5-(trifluoromethyl)-1,2-dihydropyridin-3-yl)urea]
7.30 to 8.00	CO[C@H]1CN(c2cnc3[nH]ncc3c2)CC[C@@H]1N(C)C(=O)Nc1cc(C(F)(F)F)cn(C)c1=O [Example I-109-b, 1-((3S,4S)-3-methoxy-1-(1H-pyrazolo[3,4-b]pyridin-5-yl)piperidin-4-yl)-1-methyl-3-(1-methyl-2-oxo-5-(trifluoromethyl)-1,2-dihydropyridin-3-yl)urea]
6.00 to 7.30	COCc1cc2nc(N3CC[C@H](N(C)C(=O)Nc4cc(C(F)(F)F)cn(C)c4=O)C[C@@H]3C)cnc2[nH]1 [Example I-127-a, 1-((2S,4S)-1-(6-(methoxymethyl)-5H-pyrrolo[2,3-b]pyrazin-2-yl)-2-methylpiperidin-4-yl)-1-methyl-3-(1-methyl-2-oxo-5-(trifluoromethyl)-1,2-dihydropyridin-3-yl)urea]
> 8.00	CN(C(=O)Nc1cc(C(F)(F)F)cn(C)c1=O)C1CC2(C1)CN(c1cnc3[nH]ccc3n1)C2 [Example I-55, 1-(2-(5H-pyrrolo[2,3-b]pyrazin-2-yl)-2-azaspiro[3.3]heptan-6-yl)-1-methyl-3-(1-methyl-2-oxo-5-(trifluoromethyl)-1,2-dihydropyridin-3-yl)urea]
6.00 to 7.30	Cn1cc(C(F)(F)F)cc(NC(=O)N2CCCC23CCN(c2cnc4[nH]cc(F)c4n2)CC3)c1=O [Example I-52, 8-(7-fluoro-5H-pyrrolo[2,3-b]pyrazin-2-yl)-N-(1-methyl-2-oxo-5-(trifluoromethyl)-1,2-dihydropyridin-3-yl)-1,8-diazaspiro[4.5]decane-1-carboxamide]

Reference: patent US20240116892A1, “HETEROCYCLIC AMIDE AND UREA COMPOUNDS AS JAK2 INHIBITORS” (Ajax Therapeutics, Inc., priority 2022, published 2024)
